According to publication PMC7070443, “New Hybrid Pyrazole and Imidazopyrazole Antinflammatory Agents Able to Reduce ROS Production in Different Biological Targets” (Molecules, 2020):

Experiments:
PDE1 = assay: Preliminary PDE selectivity evaluation; format: biochemical; conditions: 10 µM; data not shown
PDE7 = assay: Preliminary PDE selectivity evaluation; format: biochemical; conditions: 10 µM; data not shown
[1] = Cell vitality by propidium iodide (PI) method in neutrophils; format: cell-based; conditions: human, human neutrophils, PI method
Protocol: (§1) In the same test, cell vitality in presence of 4d (10 µM) was assessed by propidium iodide (PI) method at the end of the incubation time. In detail, in the same tubes we added PI staining solution (10 μg/mL, Invitrogen ThermoFisher Scientific, Waltham, MA, USA) to detect dead cells. PI is excited at 488 nm and, emits at a maximum wavelength of 617 nm. Because of these spectral characteristics, PI can be used in combination with other fluorochromes excited at 488 nm such as fluorescein isothiocyanate (FITC). Auto-fluorescence levels of sample were measured and subtracted from each analysis. Data were expressed as mean fluorescence intensity ((MFI), compared with the expression on cells stimulated with control medium alone (defined as 100%)).

human neutrophils [2] = assay: as above; format: cell-based; conditions: 10 µM
Protocol: as §1

PDE4B2 = biological target: T1, PDE4B2 (Homo sapiens, UniProt Q07343); assay: PDE4 enzymatic assay (IMAP fluorescence polarisation); format: biochemical; conditions: for inhibition at 10 µM: in duplicate, read-out: inhibition of PDE4B2, preliminary test; for IC50: human recombinant enzyme
T1 construct: host or cells: Spodoptera frugiperda (Sf9), baculovirus
T1 sequence (Q07343 1-564 isoform Q07343-2): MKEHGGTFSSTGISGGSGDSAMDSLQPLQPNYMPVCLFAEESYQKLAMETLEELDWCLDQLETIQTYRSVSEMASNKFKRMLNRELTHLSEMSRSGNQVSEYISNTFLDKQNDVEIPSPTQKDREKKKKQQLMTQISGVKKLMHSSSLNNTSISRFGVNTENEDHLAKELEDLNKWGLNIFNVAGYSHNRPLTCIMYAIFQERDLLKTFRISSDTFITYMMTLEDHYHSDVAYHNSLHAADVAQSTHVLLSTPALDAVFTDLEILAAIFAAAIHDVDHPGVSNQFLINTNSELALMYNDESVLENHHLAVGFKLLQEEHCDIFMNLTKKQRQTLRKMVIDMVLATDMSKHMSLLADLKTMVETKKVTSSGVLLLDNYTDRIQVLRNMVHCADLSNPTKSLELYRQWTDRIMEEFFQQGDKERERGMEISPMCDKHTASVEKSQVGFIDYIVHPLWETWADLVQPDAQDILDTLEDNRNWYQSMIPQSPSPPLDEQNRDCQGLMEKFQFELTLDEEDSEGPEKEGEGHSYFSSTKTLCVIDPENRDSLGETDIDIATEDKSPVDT
Protocol: (§2) PDE4 tests were performed by Scottish Biomedical Drug Discovery (Scottish, Biomedical Drug Discovery, Glasgow, UK) using human recombinant enzyme obtained from Spodoptera frugiperda (Sf9) cells using a baculovirus expression system (PDE enzyme at 0.5 U/mL in 20 mM Tris.HCl pH 7.4) as previously reported. IMAP technology is based on the high affinity binding of phosphate by immobilized metal coordination complexes on nanoparticles. The binding reagent complexes with phosphate groups on nucleotide monophosphate generated from cyclic nucleotides ([…]) through phosphodiesterases. With fluorescence polarisation detection, binding causes a change in the rate of the molecular motion of the phosphate bearing molecule, and results in an increase in the fluorescence polarization value observed for the fluorescent label attached to the substrate.
(§3) Title compounds 4d and 5d were solved in DMSO at 10^−2 M concentration and then diluted with water to the final suitable concentrations. All our subsequent assays were performed in 3% DMSO (final). All the compounds were tested preliminary at 10 µM concentration, in duplicate.
(§4) In all the experiments, Rolipram as reference compound (at 10 μM for PDE4B2 and 1 μM for PDE4D3) was tested at nine concentrations, in duplicate, to obtain an inhibition curve in order to validate this experiment.
(§5) Being inhibition >50%, 4d and 5d have been further tested in the same assay at five different concentrations (5 × 10^−8–10^−4 M) and IC50 values were determined by nonlinear regression analysis of the inhibition curve, using Hill equation curve fitting (Graph Pad Prism software, version 5.0a).

PDE4D3 [3] = biological target: T2, PDE4D3 (Homo sapiens, UniProt Q08499); assay: as above; format: biochemical; conditions: for inhibition at 10 µM: in duplicate, read-out: inhibition of PDE4D3, preliminary test; for IC50: human recombinant enzyme
T2 construct: host or cells: Spodoptera frugiperda (Sf9), baculovirus
T2 sequence (Q08499 1-673 isoform Q08499-2): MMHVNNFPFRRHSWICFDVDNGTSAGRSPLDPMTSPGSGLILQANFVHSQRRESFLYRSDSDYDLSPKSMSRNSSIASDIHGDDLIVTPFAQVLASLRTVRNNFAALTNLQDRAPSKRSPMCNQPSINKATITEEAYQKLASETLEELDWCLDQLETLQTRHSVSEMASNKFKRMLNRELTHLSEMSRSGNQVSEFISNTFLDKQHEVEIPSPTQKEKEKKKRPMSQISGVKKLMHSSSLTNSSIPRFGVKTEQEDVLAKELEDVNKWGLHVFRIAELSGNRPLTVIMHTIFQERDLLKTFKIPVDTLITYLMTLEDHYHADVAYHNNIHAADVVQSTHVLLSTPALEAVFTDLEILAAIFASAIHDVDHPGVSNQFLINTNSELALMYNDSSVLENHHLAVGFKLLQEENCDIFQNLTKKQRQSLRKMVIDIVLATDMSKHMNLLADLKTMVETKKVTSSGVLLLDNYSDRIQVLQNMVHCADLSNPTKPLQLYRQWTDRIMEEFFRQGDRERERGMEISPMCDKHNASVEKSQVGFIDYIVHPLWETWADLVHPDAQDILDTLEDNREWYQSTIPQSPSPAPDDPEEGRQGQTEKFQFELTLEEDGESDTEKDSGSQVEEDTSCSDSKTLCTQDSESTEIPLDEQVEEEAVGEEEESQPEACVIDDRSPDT
Protocol: as §2, §3, §4, §5

human neutrophils [4] = assay: Flow cytometric evaluation of ROS production in fMLP-activated neutrophils (DCFH-DA); format: cell-based; conditions: for inhibition at 10 µM: Homo sapiens, Neutrophil, DCFH-DA method, read-out: ROS production inhibition percentage
Description: Heparinized (heparin 10 U/mL Vister, PfizerItalia, Borgo San Michele, Latina, Italy) venous blood was obtained from healthy male volunteers after written informed consent. Neutrophils were isolated by dextran sedimentation (Dextran 70.000 Plander, Fresenius Kabi Italia, Verona, Italy), and subsequent centrifugation on a Ficoll-Hypaque density gradient (Lympholyte-I from Cedarlane Laboratories Ltd. Hornby, ON, Canada), as described. Contaminating erythrocytes were removed by hypotonic lysis. Neutrophils were washed and resuspended in Hanks’balanced salt solution (HBSS; EuroCLone, Wetherby West, Yorkshire, UK) mixed with Dulbecco’s PBS (EuroClone; HBBS:PBS. Final cell suspensions contained 97% or more neutrophils and more than 98% viable cells, as evaluated by a trypan blue test kit (Sigma Aldrich).
Flow cytometric analysis of neutrophil oxidative metabolism was carried out according to literature method. Briefly, neutrophils, were cultured for 1 h with or without 4d and 5d at different concentration. Thereafter, neutrophils were pre-treated with 2′-7′-dichlorofluorescein-diacetate (DCFH-DA; Sigma, Milan, Italy) ([…]), During the incubation time, DCFH-DA entered into the cells, and it was cleaved by intracellular esterases to give non-fluorescence DCFH trapped within the cells. After washing in PBS, the cells were incubated for 15 min at room temperature in the presence or absence of N-formyl-L-methionin-L-leucyl-L-phenylalanine (fMLP; Sigma, Milan, Italy) ([…]) for 30 min at 37 °C. During this period, intracellular ROS oxidized DCFH to give a green fluorescence […]. The reaction was stopped by keeping the samples on ice before being analyzed by flow cytometry (FC500, Beckman Coulter).

PDE3 = assay: Preliminary PDE selectivity evaluation; format: biochemical; conditions: 10 µM; data not shown
PDE2 = PDE2 (Homo sapiens, UniProt O00408); assay: Preliminary PDE selectivity evaluation; format: biochemical; conditions: 10 µM; data not shown
PDE2, sequence (O00408 whole entry): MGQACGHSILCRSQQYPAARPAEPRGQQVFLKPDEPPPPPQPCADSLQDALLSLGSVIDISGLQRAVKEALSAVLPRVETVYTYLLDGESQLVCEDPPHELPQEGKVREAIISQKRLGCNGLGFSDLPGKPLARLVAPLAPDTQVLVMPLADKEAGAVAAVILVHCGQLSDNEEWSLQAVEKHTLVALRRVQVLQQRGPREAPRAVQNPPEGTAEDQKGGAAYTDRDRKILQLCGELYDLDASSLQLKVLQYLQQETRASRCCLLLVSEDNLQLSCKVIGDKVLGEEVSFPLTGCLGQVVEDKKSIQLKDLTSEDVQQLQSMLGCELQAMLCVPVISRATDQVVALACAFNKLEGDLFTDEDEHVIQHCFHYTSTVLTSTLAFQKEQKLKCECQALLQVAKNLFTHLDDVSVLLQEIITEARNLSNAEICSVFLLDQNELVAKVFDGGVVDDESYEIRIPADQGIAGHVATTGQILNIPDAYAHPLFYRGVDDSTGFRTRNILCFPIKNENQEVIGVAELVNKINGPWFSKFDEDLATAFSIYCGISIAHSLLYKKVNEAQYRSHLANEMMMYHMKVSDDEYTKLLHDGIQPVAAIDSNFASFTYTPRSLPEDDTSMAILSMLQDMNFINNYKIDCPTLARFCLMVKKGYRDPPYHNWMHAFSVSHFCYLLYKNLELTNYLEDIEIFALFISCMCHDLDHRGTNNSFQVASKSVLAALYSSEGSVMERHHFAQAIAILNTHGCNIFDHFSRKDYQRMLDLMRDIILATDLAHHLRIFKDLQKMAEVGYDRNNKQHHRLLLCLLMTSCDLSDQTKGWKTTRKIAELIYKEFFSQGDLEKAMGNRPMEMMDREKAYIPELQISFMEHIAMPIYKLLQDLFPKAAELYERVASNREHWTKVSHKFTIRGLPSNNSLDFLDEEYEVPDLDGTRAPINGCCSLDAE

human neutrophils [5] = assay: Neutrophil chemotaxis inhibition (fMLP stimulated); format: cell-based; conditions: data not shown
human platelets [6] = assay: Platelet aggregation inhibition (Born's method, thrombin-stimulated washed platelets); format: cell-based; conditions: Platelet, 0.1 U/mL thrombin, mean +/- SD, at least six experiments in duplicate
Protocol: (§6) Freshly drawn venous blood from healthy volunteers of the “Centro Trasfusionale, Ospedale San Martino” in Genoa was collected into 130 mM aqueous trisodium citrate anticoagulant solution (9:1). The donors claimed to have not taken drugs known to interfere with platelet function during two weeks prior to blood collection and gave their informed consent. Washed platelets were prepared centrifuging whole blood at 100× g for 20 min. The obtained platelet-rich plasma was then centrifuged at 1100× g for 15 min. Pellet was washed once with pH 5.2 ACD solution (75 mM trisodium citrate, 42 mM citric acid and 136 mM glucose), centrifuged at 1100× g for 15 min and then re-suspended in pH 7.4 Hepes buffer (145 mM NaCl, 5 mM KCl, 1 mM MgSO4, 10 mM glucose, 10 mM HEPES).
Platelet aggregation was performed in a Bio-Data Aggregometer (Bio-Data Corporation, Horsham, PA, USA) according to Born’s method and quantified by the light transmission reached within 6 min at 37 °C. Briefly, washed platelets (3.0 × 10^8/mL) were pre-incubated for 3 min at 37 °C with saline, compound 4 or 5 before the addition of 0.1 U/mL thrombin. The IC50 values were calculated as above detailed.

PDE5 = PDE5 (Homo sapiens, UniProt O76074); assay: Preliminary PDE selectivity evaluation; format: biochemical; conditions: 10 µM; data not shown
human platelets [7] = assay: ROS production inhibition in thrombin-stimulated washed platelets (DCFH-DA, flow cytometry); format: cell-based; conditions: for IC50: washed human platelets, 0.1 U/mL thrombin, DCFH-DA, mean +/- SD, at least six experiments in duplicate
Protocol: as §6
ROS production was quantified as previously reported by DCFH-DA, a ROS-sensitive probe that yields upon oxidation the fluorescent adduct DCF that is trapped inside the cells. Briefly, washed platelets (1.0 × 10^8/mL), pre-incubated with saline, compounds 4 or 5, for 15 min at 37 °C, were stimulated by 0.1 U/mL thrombin. Incubation was stopped by cooling samples in ice bath and then samples were immediately analyzed in a Merck Millipore Bioscience Guava easyCyte flow cytometer (Merk Millipore, Burlington, MA, USA). The reported IC50 value is the molar concentration of the compound able to obtain 50% inhibition of the […] induced by the agonist and is calculated by the percentage of inhibition that is the inhibition of the […] measured in the presence of the agent compared with that measured in a control sample containing saline, carried out under the same conditions.

PDE4D3 [8] = conditions: Figure 2; cited from earlier work

Structure (SMILES): COc1ccc(/C=N/NC(=O)c2cnn(CC(O)c3ccccc3)c2N)cc1OC1CCCC1 (stereo not drawn) [4d, (E)-5-Amino-N′-(3-(cyclopentyloxy)-4-methoxybenzylidene)-1-(2-hydroxy-2-phenylethyl)-1H-pyrazole-4-carbohydrazide]
- inhibition of PDE1 (PDE1): no inhibition
- inhibition of PDE7 (PDE7): no inhibition
- viability at 10 µM [1]: > 95%
- cytotoxic action (PI method) (human neutrophils [2]): no cytotoxic action
- inhibition at 10 µM (PDE4B2): > 50%
- IC50 (PDE4B2): 0.55 µM
- inhibition at 10 µM (PDE4D3 [3]): > 50%
- IC50 (PDE4D3 [3]): 1.05 µM
- inhibition at 10 µM (human neutrophils [4]): 68%
- inhibition of PDE3 (PDE3): no inhibition
- inhibition of PDE2 (PDE2): no inhibition
- chemotaxis inhibition (human neutrophils [5]): very low or absent
- IC50 (human platelets [6]): 29.8 ± 3.7 µM
- inhibition of PDE5 (PDE5): no inhibition
- IC50 (human platelets [7]; Homo sapiens, Platelet): 40 µM
- IC50 (human platelets [7]): 38.3 ± 2.8 µM

Structure (SMILES): COc1ccc(/C=N/NC(=O)c2cnn3c2NC(c2ccccc2)C3)cc1OC1CCCC1 (stereo not drawn) [5d, (E)-N′-(3-(cyclopentyloxy)-4-methoxybenzylidene)-2-phenyl-2,3-dihydro-1H-imidazo[1,2-b]pyrazole-7-carbohydrazide]
- cytotoxic action (PI method) (human neutrophils [2]): no cytotoxic action
- inhibition at 10 µM (PDE4B2): > 50%
- IC50 (PDE4B2): 0.55 µM
- inhibition at 10 µM (PDE4D3 [3]): > 50%
- IC50 (PDE4D3 [3]): 1.22 µM
- inhibition at 10 µM (human neutrophils [4]): 63%
- chemotaxis inhibition (human neutrophils [5]): very low or absent
- IC50 (human platelets [6]): 71 ± 6.8 µM
- IC50 (human platelets [7]; Homo sapiens, Platelet): 70.6 ± 7.4 µM

Structure (SMILES): COc1ccc(/C=N/OCC(O)CN2CC(C)OC(C)C2)cc1OC1CCCC1 (stereo not drawn) [GEBR-4a]
- IC50 (PDE4D3 [8]): 2.8 µM

Structure (SMILES): COc1ccc(-c2ccn(CC(O)CN3CCOCC3)n2)cc1OC1CCCC1 (stereo not drawn) [GEBR-54]
- IC50 (PDE4D3 [8]): 7.6 µM

Structure (SMILES): NNC(=O)c1cnn(CC(O)c2ccccc2)c1N (stereo not drawn) [compound 7, 5-Amino-1-(2-hydroxy-2-phenylethyl)-1H-pyrazole-4-carbohydrazide]
- melting point: 183 to 184 °C
- activity towards ROS production in neutrophils (in words) (human neutrophils [4]; data not shown): completely inactive
- activity towards ROS production in platelets (in words) (human platelets [7]; human platelets, thrombin stimulated): completely inactive
